Experimental data reported in US20240226001A1, “Contact Lenses And Other Eye-Contacting Matrices Carrying Mitochondrially-Targeted Antioxidants” (Mitotech S.A., priority 2015, published 2024).
Several values for one entry are separate records, joined by “and”; a condition that tells them apart may be missing. Equal values may be shown once. Read-outs that look alike come from different tables or passages of the source. Each block holds one compound with its values, some of them ahead of it.

What was measured:
[1] = Adsorption of MTCs on a matrix from PBS versus 50% ethanol, HPLC (Example 4); assay type: physicochemical; conditions: 250 nM solution in dark glass vials; adsorption in 50% ethanol negligible
Method: It must be noted that SkQ3 differs from SkQ1 by the antioxidant moiety (A moiety in the formula I—see above), while SkB1 differs from SkQ1 by both the linker (L moiety) and targeting moiety (B moiety). So in this experiment, variations in all 3 parts of MTC molecule were successfully used.
The experiment was conducted as follows: 990 μl of phosphate buffered saline (PBS) or 50% water-ethanol solution (SkQ adsorption in 50% ethanol is negligible) was placed in dark glass chromatography vials (Waters, p/n 186000847c). 10 ul of 25 μM SkQ solution in ethanol was then added to each vial, yielding a 250 nM solution. The vials were vigorously mixed and the SkQ concentration in each vial (100 μl samples) was analyzed by HPLC using a Luna C 18 (2), Phenomenex, 250 MM '4.6 mm column with a sorbent particle size of 5 μm. The liquid phase used was acetonitrile:water (56:44), and the flow speed was 1 ml/min. at 25° C. UV detection was performed at A260.

[2] = Adsorption of SkQ1 from saline on soft disposable contact lens, retention in saline, extraction with 50% acetonitrile (Example 2); assay type: physicochemical
Method: Lens pre-wash: soft disposable contact lenses were thoroughly rinsed with saline solution (0.9% NaCl) and incubated in this solution overnight. Preparation of 2.5 μM SkQ1 solution: 4 mL of saline solution was placed in dark glass vials. 40 μL of 500 μM SkQ1 solution in 50% ethanol was added into each vial yielding 2.5 μM SkQ1 solution. Solution in the vial was thoroughly mixed and then incubated overnight to yield A1 series solution. Then aliquots of A1 series were collected from these vials.
During the experiment a pre-washed contact lens was placed into a glass vial with 2.5 uM SkQ1 solution and incubated at +4° C.-+8 °C for 4 days. Then the contact lenses were removed from the 2.5 μM SkQ1 solution, rinsed with saline solution and placed into fresh saline solution and incubated overnight at +4° C.-+8° C. to yield A2 series solution. Aliquots of the A2 series solution were collected from the vials where lenses were incubated in 2.5 μM SkQ1 solution.
After the above described overnight lens incubation in saline solution, lenses were placed in vials containing 500 μL of 50% acetonitrile and mixed during 1 hour at +25° C. Then aliquots of this acetonitrile solution was collected (A3 series).
The content of SkQ1 in the collected aliquots was analyzed using LCMS/MS.

rabbit eyes = assay: SkQ1 content of experimental lenses taken from rabbits eyes (Example 3); assay type: in vivo; conditions: for SkQ1 conc. in experimental lenses: 50% acetonitrile extract; for SkQ1 conc. in experimental lenses / SkQ1 amount in experimental lenses: single samples; for Average SkQ1 amount in experimental lenses: average of 2 samples
Method: (§1) The experiment was performed as follows: contact lenses were supplemented with SkQ1 as described in Example 2, then some lenses were placed on rabbit eyes and some lenses left aside in saline solution. At certain time points (see below in the table 3) contact lenses were removed from rabbits' eyes (experimental lenses) or saline solution (control lenses) and such rabbits were euthanized and their cornea were taken for SkQ1 content analysis. Then SkQ1 was extracted from the collected lenses and cornea samples using 50% acetonitrile solution and the SkQ1 amount in the extracts was determined using LCMS/MS.

[3] = SkQ1 content of control lenses (intact lenses kept in saline solution) (Example 3); assay type: physicochemical; conditions: for SkQ1 conc. in control lenses: 50% acetonitrile extract
Method: as §1

rabbit cornea [4] = assay: SkQ1 concentration in rabbit cornea after instillation of eye drops (control experiment); assay type: in vivo; conditions: eye drops containing 1.55 μg/mL of SkQ1, FIG. 2B
Method: Thus SkQ1 was efficiently transferred from the experimental lens into the eye. In the control experiment, SkQ1 was administered into the rabbit eye by instillation of eye drops containing 1.55 μg/mL of SkQ1. At certain time points, samples of rabbit cornea were taken and analyzed for SkQ1 content using LCMS/MS. […] Thus, the mode of accumulation of SkQ1 in the cornea is different when SkQ1 is administered via contact lenses (compare graphs on FIG. 2A and FIG. 2B).

[5] = SkQ1 concentration in rabbit cornea after SkQ1-supplemented contact lens (Example 3); assay type: in vivo; conditions: rabbit; for concentration at 30 min / concentration at 1 h / concentration at 2 h: topical; for concentration at 30 min: 30 min after lens placement; for concentration at 1 h: 1 hour after lens placement; for concentration at 2 h: 2 hours after lens placement
Method: as §1

rabbit cornea [6] = assay: as above; assay type: in vivo; conditions: for SkQ1 nM in cornea / SkQ1 ng per g of cornea / SkQ1 concentration in the cornea (extract): single samples
Method: as §1

[7] = A1 series: 2.5 μM SkQ1 saline solution before lens
[8] = A2 series: saline solution after lens incubation
[9] = A3 series: 50% acetonitrile extract of lens, 1 hour at +25° C.
[10] = cornea (50% acetonitrile extract), single samples, read-out: SkQ1 concentration in the cornea (extract)
[11] = cornea, average of 2 samples, read-out: SkQ1 Aver. nM in cornea
[12] = cornea, single samples, read-out: SkQ1 nM in cornea
[13] = cornea, single samples, read-out: SkQ1 ng per g of cornea

Concentration in PBS as % of the concentration in 50% ethanol [1]: 63.8%
Structure (SMILES): COc1ccc2c(CC(=O)OCCCCCCCC3=CC(=O)C(C)=C(C)C3=O)c3[n+](cc2c1OC)CCc1cc2c(cc1-3)OCO2 [SkQB1]

Calculated total SkQ1 amount in the vial, M ± SE (n = 9) [2, 7]: 3.69 µg and 3.69 ± 0.11 µg
SkQ1 concentration found, M ± SE (n = 9) [2, 7]: 0.97 ± 0.03 µg/mL
Calculated total SkQ1 amount in the vial, M ± SE (n = 9) [2, 8]: 0.19 µg and 0.19 ± 0.07 µg
SkQ1 concentration found, M ± SE (n = 9) [2, 8]: 0.1 ± 0.04 µg/mL
Calculated total SkQ1 amount in the vial (=total SkQ1 amount extracted from the lens), M ± SE (n = 9) [2, 9]: 2.5 µg and 2.5 ± 0.08 µg
SkQ1 concentration found, M ± SE (n = 9) [2, 9]: 9.9 ± 0.33 µg/mL
SkQ1 conc. in experimental lenses (rabbit eyes; 30 min on rabbit eye): 2.868 µg/mL and 3.006 µg/mL
Average SkQ1 amount in experimental lenses (rabbit eyes; 30 min on rabbit eye): 2.38 nmoles/sample
Amount of SkQ1 in the contact lens placed on the eye over time (rabbit eyes; 30 min to 6 hours, FIG. 1): decreased with time
SkQ1 conc. in experimental lenses (rabbit eyes; 1 hour on rabbit eye): 3.339 µg/mL and 3.200 µg/mL
Average SkQ1 amount in experimental lenses (rabbit eyes; 1 hour on rabbit eye): 2.65 nmoles/sample
SkQ1 conc. in experimental lenses (rabbit eyes; 2 hours on rabbit eye): 2.77 µg/mL and 2.854 µg/mL
Average SkQ1 amount in experimental lenses (rabbit eyes; 2 hours on rabbit eye): 2.279 nmoles/sample
SkQ1 conc. in experimental lenses (rabbit eyes; 6 hours on rabbit eye): 1.448 µg/mL and 1.229 µg/mL
Average SkQ1 amount in experimental lenses (rabbit eyes; 6 hours on rabbit eye): 1.114 nmoles/sample
SkQ1 amount in control lenses ([3]; 30 min in saline): 4.611 nmoles/sample
SkQ1 conc. in control lenses ([3]; 30 min in saline): 5.690 µg/mL
SkQ1 concentration on intact control lenses left in saline over time ([3]; 30 min to 6 hours, FIG. 1): stayed stable
SkQ1 amount in control lenses ([3]; 1 hour in saline): 4.966 nmoles/sample
SkQ1 conc. in control lenses ([3]; 1 hour in saline): 6.129 µg/mL
SkQ1 amount in control lenses ([3]; 2 hours in saline): 5.107 nmoles/sample
SkQ1 conc. in control lenses ([3]; 2 hours in saline): 6.302 µg/mL
SkQ1 amount in control lenses ([3]; 6 hours in saline): 4.377 nmoles/sample
SkQ1 conc. in control lenses ([3]; 6 hours in saline): 5.052 µg/mL
Time of maximum SkQ1 concentration in cornea (rabbit cornea [4]): 30 min
Concentration in PBS as % of the concentration in 50% ethanol [1]: 51.7%
concentration at 30 min [5, 10]: 0.64 ng/mL
concentration at 1 h [5, 10]: 1.56 ng/mL
concentration at 2 h [5, 10]: 1.46 ng/mL
concentration at 6 h ([5]; cornea, other: SkQ1-supplemented contact lens placed on the eye, 6 hours after lens placement, average of 2 samples, read-out: SkQ1 Aver. nM in cornea): 17.8 nM
concentration at 30 min [5, 11]: 5.59 nM
concentration at 30 min [5, 12]: 6.22 nM
concentration at 30 min [5, 13]: 3.84 ng/g
concentration at 1 h [5, 11]: 14.7 nM
concentration at 1 h [5, 12]: 15.2 nM
concentration at 1 h [5, 13]: 9.36 ng/g
concentration at 2 h [5, 11]: 13.8 nM
concentration at 2 h [5, 12]: 14.2 nM
concentration at 2 h [5, 13]: 8.76 ng/g
SkQ1 nM in cornea (rabbit cornea [6]; 30 min after lens placement): 4.96 nM
SkQ1 ng per g of cornea (rabbit cornea [6]; 30 min after lens placement): 3.06 ng per g of cornea
SkQ1 concentration in the cornea (extract) (rabbit cornea [6]; 30 min after lens placement): 0.51 ng/mL
SkQ1 nM in cornea (rabbit cornea [6]; 1 hour after lens placement): 14.30 nM
SkQ1 ng per g of cornea (rabbit cornea [6]; 1 hour after lens placement): 8.82 ng per g of cornea
SkQ1 concentration in the cornea (extract) (rabbit cornea [6]; 1 hour after lens placement): 1.47 ng/mL
SkQ1 nM in cornea (rabbit cornea [6]; 2 hours after lens placement): 13.32 nM
SkQ1 ng per g of cornea (rabbit cornea [6]; 2 hours after lens placement): 8.22 ng per g of cornea
SkQ1 concentration in the cornea (extract) (rabbit cornea [6]; 2 hours after lens placement): 1.37 ng/mL
Concentration of SkQ1 in the rabbits' eye cornea over time (rabbit cornea [6]; administered via contact lens, FIG. 2A): gradually increased
Structure (SMILES): CC1=C(C)C(=O)C(CCCCCCCCCC[P+](c2ccccc2)(c2ccccc2)c2ccccc2)=CC1=O [SkQ1]
SkQ1 amount in experimental lenses (rabbit eyes; 30 min on rabbit eye): 2.324 nmoles/sample and 2.436 nmoles/sample
SkQ1 amount in experimental lenses (rabbit eyes; 1 hour on rabbit eye): 2.706 nmoles/sample and 2.593 nmoles/sample
SkQ1 amount in experimental lenses (rabbit eyes; 2 hours on rabbit eye): 2.244 nmoles/sample and 2.313 nmoles/sample
SkQ1 amount in experimental lenses (rabbit eyes; 6 hours on rabbit eye): 1.174 nmoles/sample and 1.053 nmoles/sample

Concentration in PBS as % of the concentration in 50% ethanol [1]: 29.6%
Structure (SMILES): CC1=C(C)C(=O)C(CCCCCCCCCC[P+](c2ccccc2)(c2ccccc2)c2ccccc2)=C(C)C1=O [SkQ3]
